Source: PMC3669315, “Dissociations in the Effects of β2-Adrenergic Receptor Agonists on cAMP Formation and Superoxide Production in Human Neutrophils: Support for the Concept of Functional Selectivity” (PLoS ONE, 2013)
Like-named read-outs stand apart in the source and are kept apart here.

Key:
[1] = biological target: T1, β2-adrenergic receptor (β2AR) on human neutrophils (Homo sapiens, UniProt P07550); experiment: cAMP accumulation, HPLC-MS/MS; format: cell-based; details: read-out: cAMP assay (β2AR on neutrophil granulocytes) / pEC50 ± S.E.M. (EC50 in μM) (converted), intact neutrophils, […] IBMX, […] °C
T1 construct: gene ADRB2; native full-length receptor in intact neutrophils isolated from venous blood or buffy coat of healthy volunteers
T1 sequence (P07550 whole entry): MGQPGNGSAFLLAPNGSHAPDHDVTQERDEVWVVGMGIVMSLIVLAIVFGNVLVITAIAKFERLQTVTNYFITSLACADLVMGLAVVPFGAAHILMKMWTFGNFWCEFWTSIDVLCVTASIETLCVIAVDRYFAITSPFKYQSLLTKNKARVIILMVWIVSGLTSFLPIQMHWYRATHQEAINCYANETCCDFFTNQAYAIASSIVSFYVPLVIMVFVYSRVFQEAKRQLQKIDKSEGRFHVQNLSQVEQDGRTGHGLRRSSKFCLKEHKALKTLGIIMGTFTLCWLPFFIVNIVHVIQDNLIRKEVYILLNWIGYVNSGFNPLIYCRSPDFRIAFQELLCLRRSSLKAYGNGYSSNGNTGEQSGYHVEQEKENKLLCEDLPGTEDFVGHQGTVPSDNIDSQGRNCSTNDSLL

[2] = biological target: T1, β2-adrenergic receptor (β2AR) on human neutrophils; experiment: inhibition of fMLP-stimulated superoxide production, ferricytochrome c reduction; format: cell-based; details: agonist potency, downstream functional read-out, intact neutrophils, […] fMLP, cytochalasin B, read-out: O2 ^•- assay (β2AR on neutrophil granulocytes) / pIC50 ± S.E.M. (IC50 in μM) (converted)
Text: inhibition of fMLP-stimulated superoxide production, ferricytochrome c reduction on β2-adrenergic receptor (β2AR) on human neutrophils

Structure (SMILES) | EC50 ([1]; agonist mode, table prints pEC50 <[…] as ( […]), text: no agonistic activity up to […]) | IC50 [2] | EC50 ([1]; partial agonist)
CC(C)NCC(O)c1ccc(Cl)c(Cl)c1 (racemic) [DCI, (±)-dichlorisoproterenol] | > 100 µM | 39.8 µM | –
CC(CCc1ccc(O)cc1)NCCc1ccc(O)c(O)c1 (racemic) [DOB, (±)-dobutamine] | – | – | 13.8 µM
